Experimental data from paper PMC10354740 (Journal of medicinal chemistry, 2022).
≈ marks a conversion by molar mass, not a printed value. Where two headings read alike, the source gives them in different places.

Legend:
[1] = molecular target: T1, hA3AR (Homo sapiens, UniProt P0DMS8); conditions: modulator 0.1 μM; cited from earlier work
T1 sequence (P0DMS8 1-318): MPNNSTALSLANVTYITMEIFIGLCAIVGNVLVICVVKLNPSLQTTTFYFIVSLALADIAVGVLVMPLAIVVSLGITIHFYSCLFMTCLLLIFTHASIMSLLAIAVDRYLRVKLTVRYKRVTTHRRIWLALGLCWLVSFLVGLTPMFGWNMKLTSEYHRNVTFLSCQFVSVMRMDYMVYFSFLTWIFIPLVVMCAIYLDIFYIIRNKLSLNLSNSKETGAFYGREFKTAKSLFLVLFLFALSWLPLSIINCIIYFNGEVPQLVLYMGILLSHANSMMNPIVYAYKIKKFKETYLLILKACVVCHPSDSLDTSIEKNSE

[2] = molecular target: T1, hA3AR; conditions: for enhancement of agonist efficacy at 0.1 μM: modulator 0.1 μM; for effect on agonist 52 potency: modulator 1 μM (30–34: 0.1 and 1.0 μM), compared to control
[3] = molecular target: T1, hA3AR; conditions: modulator 10 μM; 100 μM 51 added; control 26%
[4] = molecular target: T2, hA1 AR (Homo sapiens, UniProt P30542); assay: Orthosteric antagonist radioligand binding; conditions: concentrations as high as 10 μM
T2 sequence (P30542 1-326): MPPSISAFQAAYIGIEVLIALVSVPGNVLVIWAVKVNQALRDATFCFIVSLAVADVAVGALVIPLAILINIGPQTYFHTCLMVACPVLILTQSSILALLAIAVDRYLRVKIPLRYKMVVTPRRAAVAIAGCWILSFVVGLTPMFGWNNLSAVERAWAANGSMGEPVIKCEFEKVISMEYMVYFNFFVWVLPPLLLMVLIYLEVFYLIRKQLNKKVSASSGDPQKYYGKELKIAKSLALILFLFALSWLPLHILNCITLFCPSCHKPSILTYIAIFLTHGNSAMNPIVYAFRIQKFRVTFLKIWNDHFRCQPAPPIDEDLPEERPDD

[5] = molecular target: hA2A AR (Homo sapiens, UniProt P29274); assay: Orthosteric antagonist radioligand binding; conditions: concentrations as high as 10 μM
[6] = molecular target: T3, hA2B AR (Homo sapiens, UniProt P29275); assay: Orthosteric antagonist radioligand binding; conditions: concentrations as high as 10 μM
T3 sequence (P29275 1-332): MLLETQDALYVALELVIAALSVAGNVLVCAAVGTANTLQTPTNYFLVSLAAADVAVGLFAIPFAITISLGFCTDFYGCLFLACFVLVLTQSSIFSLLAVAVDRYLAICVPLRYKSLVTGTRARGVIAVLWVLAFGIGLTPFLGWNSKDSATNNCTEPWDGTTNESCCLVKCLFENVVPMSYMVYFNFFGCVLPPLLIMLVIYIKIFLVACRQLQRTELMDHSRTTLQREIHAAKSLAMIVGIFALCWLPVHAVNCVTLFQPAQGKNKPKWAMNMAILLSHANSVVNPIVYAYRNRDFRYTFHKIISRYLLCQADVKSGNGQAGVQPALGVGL

[7] = pION aqueous solubility pH 7.4; assay type: physicochemical; conditions: pION buffer
[8] = Pharmacokinetics in fasted Wistar rats; assay type: in vivo; conditions: rat
[9] = system: Caco-2 cells; assay: Caco-2 cell permeability assay; assay type: in vitro ADME, human
[10] = molecular target: CYP2C9 (Homo sapiens, UniProt P11712); assay: CYP inhibition
[11] = Plasma protein binding, human; conditions: pH 7.4

Chain of CYP2C9 (P11712 whole entry): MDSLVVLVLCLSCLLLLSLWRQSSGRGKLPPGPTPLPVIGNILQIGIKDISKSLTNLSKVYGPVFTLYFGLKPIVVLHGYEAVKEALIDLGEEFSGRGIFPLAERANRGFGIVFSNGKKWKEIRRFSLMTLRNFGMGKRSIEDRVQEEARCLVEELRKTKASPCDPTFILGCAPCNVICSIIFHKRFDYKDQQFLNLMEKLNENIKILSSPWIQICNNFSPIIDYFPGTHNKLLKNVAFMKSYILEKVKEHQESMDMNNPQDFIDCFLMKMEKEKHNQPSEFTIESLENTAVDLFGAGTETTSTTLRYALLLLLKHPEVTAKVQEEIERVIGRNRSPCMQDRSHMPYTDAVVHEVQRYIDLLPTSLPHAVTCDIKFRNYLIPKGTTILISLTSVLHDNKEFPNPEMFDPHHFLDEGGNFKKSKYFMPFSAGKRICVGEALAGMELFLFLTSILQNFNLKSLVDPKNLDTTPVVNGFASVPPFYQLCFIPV
Chain of hA2A AR (P29274 whole entry): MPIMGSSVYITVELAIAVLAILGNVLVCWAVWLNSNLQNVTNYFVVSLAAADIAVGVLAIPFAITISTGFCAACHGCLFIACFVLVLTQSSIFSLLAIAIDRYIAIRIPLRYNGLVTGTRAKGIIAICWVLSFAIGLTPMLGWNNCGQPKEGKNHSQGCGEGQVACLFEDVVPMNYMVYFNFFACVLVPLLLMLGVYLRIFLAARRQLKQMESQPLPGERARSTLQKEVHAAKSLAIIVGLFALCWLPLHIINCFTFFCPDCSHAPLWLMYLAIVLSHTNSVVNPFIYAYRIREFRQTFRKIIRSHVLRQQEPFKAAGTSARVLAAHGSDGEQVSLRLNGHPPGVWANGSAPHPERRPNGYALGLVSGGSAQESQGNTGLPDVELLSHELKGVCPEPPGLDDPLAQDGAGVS

## Clc1ccc(Nc2nc3ccccc3c3nc(C4CCCCC4)[nH]c23)cc1Cl [Compound 7, N-(3,4-dichloro-phenyl)-2-cyclohexyl-1H-imidazo[4,5-c]quinolin-4-amine]
[1]
  enhancement of agonist efficacy at 0.1 μM: significantly enhanced agonist efficacy

## Clc1ccc(Nc2nc3ccccc3c3[nH]c(C4CCCCCC4)nc23)cc1Cl [Compound 8]
[1]
  enhancement of agonist efficacy at 0.1 μM: significantly enhanced agonist efficacy

## Clc1ccc(Nc2nc3ccccc3c3[nH]c(C45CC6CC(CC(C6)C4)C5)nc23)cc1Cl [Compound 12b]
[2]
  enhancement of agonist efficacy at 0.1 μM: significantly enhanced agonist efficacy
[2]; modulator 1 μM
  fold increase of agonist efficacy: approximately 2 fold
[2]; modulator 1.0 μM, P = 0.058
  fold improvement of agonist potency: ~4 fold

## FC(F)(F)CCC(CCC(F)(F)F)c1nc2c(Nc3ccc(Cl)c(Cl)c3)nc3ccccc3c2[nH]1 [Compound 15, 2-(1,1,1,7,7,7-Hexafluoroheptan-4-yl)-N-(3,4-dichlorophenyl)-1H-imidazo[4,5-c]quinolin-4-amine]
[2]
  effect on agonist 52 potency: did not influence agonist potency
[3]
  radioligand [125I]50 remaining bound 60 min after initiation of dissociation: did not slow agonist dissociation

## FC(F)(F)[C@H]1CC[C@H](c2nc3c(Nc4ccc(Cl)c(Cl)c4)nc4ccccc4c3[nH]2)CC1 [Compound 16, 2-(4-(Trifluoromethyl)cyclohexyl)-N-(3,4-dichlorophenyl)-1H-imidazo[4,5-c]quinolin-4-amine]
[2]
  enhancement of agonist efficacy at 0.1 μM: significantly enhanced agonist efficacy
  effect on agonist 52 potency: did not influence agonist potency

## Clc1ccc(Nc2nc3ccccc3c3[nH]c(C4CC4)nc23)cc1Cl [Compound 17, 2-(Cyclopropyl)-N-(3,4-dichlorophenyl)-1H-imidazo[4,5-c]quinolin-4-amine]
[4]
  inhibition of orthosteric antagonist binding at hA1 AR: did not inhibit orthosteric antagonist binding
[5]
  inhibition of orthosteric antagonist binding at hA2A AR: did not inhibit orthosteric antagonist binding
[6]
  inhibition of orthosteric antagonist binding at hA2B AR: did not inhibit orthosteric antagonist binding

## Clc1ccc(Nc2nc3ccccc3c3[nH]c(C4CCC=CCC4)nc23)cc1Cl [Compound 18, 2-(Cyclohept-4-en-1-yl)-N-(3,4-dichlorophenyl)-1H-imidazo[4,5-c]quinolin-4-amine]
[7]
  solubility at 18 h: 0.92 µM (≈ 0.389 µg/mL)
[8]; male, Wistar (RccHan:WIST), plasma, po, 10 mg/kg
  Cmax: 4.2 µM
[8]; 1 mg/kg p.o.
  clearance rate from plasma: 7.45 mL/min/kg
[8]; 3 mg/kg p.o.
  clearance rate from plasma: 26.33 mL/min/kg
[8]; 10 mg/kg p.o.
  clearance rate from plasma: 16.2 mL/min/kg
[9]; 10 μM
  Caco-2 permeability (Papp) apical to basolateral (A to B): no measurable permeability
  Caco-2 permeability (Papp) basolateral to apical (B to A): no measurable permeability
[9]; A-B and B-A
  Caco-2 permeability classification: low A-B and B-A permeability

## Clc1ccc(Nc2nc3ccccc3c3[nH]c(C45CCC(CC4)C5)nc23)cc1Cl [Compound 25, 2-(Bicyclo[2.2.1]heptan-1-yl)-N-(3,4-dichlorophenyl)-1H-imidazo[4,5-c]quinolin-4-amine]
[2]; modulator 1 μM, P = 0.0257
  fold decrease in agonist potency compared to control: 4 fold

## Clc1ccc(Nc2nc3ccccc3c3[nH]c(C45CCCC(CCC4)C5)nc23)cc1Cl [Compound 26, 2-(Bicyclo[3.3.1]nonan-1-yl)-N-(3,4-dichlorophenyl)-1H-imidazo[4,5-c]quinolin-4-amine]
[2]
  effect on agonist 52 potency: neither 12b nor 26 significantly improved agonist potency

## Clc1ccc(Nc2nc3ccccc3c3[nH]c([C@@H]4C[C@@H]5CCC[C@@H](C5)C4)nc23)cc1Cl [Compound 27, 2-((1R,3s,5S)-Bicyclo[3.3.1]nonan-3-yl)-N-(3,4-dichlorophenyl)-1H-imidazo[4,5-c]quinolin-4-amine]
[2]
  enhancement of agonist efficacy at 0.1 μM: significantly enhanced agonist efficacy

## Clc1ccc(Nc2nc3ccccc3c3[nH]c([C@@H]4CC[C@@H]5C[C@@H]5CC4)nc23)cc1Cl [Compound 28, 2-((1R,4r,7S)-bicyclo[5.1.0]octan-4-yl)-N-(3,4-dichlorophenyl)-1H-imidazo[4,5-c]quinolin-4-amine]
[2]; modulator 1 μM
  fold increase of agonist efficacy: approximately 2 fold
[3]
  radioligand [125I]50 remaining bound 60 min after initiation of dissociation: slowed agonist radioligand dissociation

## Clc1ccc(Nc2nc3ccccc3c3[nH]c(C4CC5C=CC4CC5)nc23)cc1Cl [Compound 29, 2-((1R,2R,4R)- and (1S,2S,4S))-Bicyclo[2.2.2]oct-5-en-2-yl)-N-(3,4-dichlorophenyl)-1H-imidazo[4,5-c]quinolin-4-amine]
[2]; concentration-dependent
  effect on agonist EC50 over modulator concentrations: significantly decreasing the potency in a concentration-dependent manner
[2]
  effect on agonist 52 potency: did not influence agonist potency

## Clc1ccc(COC(Cn2ccnc2)c2ccc(Cl)cc2Cl)c(Cl)c1 (centres unmarked) [Miconazole]
[10]
  IC50: 380 nM

## CC(=O)CC(c1ccccc1)c1c(O)c2ccccc2oc1=O (centres unmarked) [Warfarin]
[11]
  fraction unbound at 5 h, 10 μM: 0.037
